How the values were obtained:
Type in all cases: in vivo, male C57BL/6 mice
CFA-injected mice [1] = test: von Frey filaments test (mechanical allodynia) in CFA-induced chronic inflammatory pain; conditions: for Mechanical allodynia von Frey filaments strength / Mechanical allodynia, Experimental results (%) (maximal possible effect): ipsilateral paw; for Mechanical allodynia von Frey filaments strength: mean ± SEM, n=6; for reversal of the antiallodynic (antinociceptive) effects produced by 300 µg of JWH-015 / reversal of the antiallodynic effects produced by 150 µg of DPDPE: subplantar coadministration; for Mechanical allodynia, Experimental results (%) (maximal possible effect): CoPP 10 mg/kg intraperitoneal; for reversal of the antiallodynic effects produced by 150 µg of DPDPE: P < 0.001
Experimental: (§1) The experiments were performed in male C57BL/6 mice acquired from Harlan Laboratories (Barcelona, Spain). All mice weighing 21 to 25 g were housed under 12-h/12-h light/ dark conditions in a room with controlled temperature (22° C) and humidity (66%). Animals had free access to food and water and were used after a minimum of 7 days acclimatization to the housing conditions. All experiments were performed according with the Guide for the Care and Use of Laboratory Animals as adopted and promulgated by the U.S. National Institutes of Health and approved by the local Committee of Animal Use and Care of the Autonomous University of Barcelona. All efforts were made to minimize animal suffering and to reduce the number of animals used.
(§2) Chronic inflammatory pain was induced by the subplantar injection of 30 µl of CFA (Sigma) into the right hind paw under brief anesthetic conditions with isoflurane according to previous works (Leánez et al., Eur J Pharmacol, 2009, 602:41-49; Hervera et al., Naunyn Schmiedebergs Arch Pharmacol, 2009, 380:345-352). All experiments were performed at 10 days after CFA injection. At this time point, all of these animals developed a local inflammatory reaction, allodynia to mechanical stimuli and hyperalgesia to noxious thermal stimuli, as previously reported (Negrete et al., PLoS One, 2011, 6:e26688). The development of mechanical allodynia and thermal hyperalgesia was evaluated by using the von Frey filaments and plantar tests, respectively. All animals were tested in each paradigm before and at 10 days after CFA-injection.
Mechanical allodynia was quantified by measuring the hind paw withdrawal response to von Frey filament stimulation. In brief, animals were placed in methacrylate cylinders (20 cm high, 9 cm diameter; Servei Estació, Barcelona, Spain) with a wire grid bottom through which the von Frey filaments (North Coast Medical, Inc., San Jose, CA) with a bending force in the range of 0.008-3.5 g were applied by using a modified version of the up-down paradigm, as previously reported by Chaplan et al. (J Neurosci Methods, 1994, 53:55-63). The filament of 0.4 g was used first and the 3.0 g filament was used as a cut-off. Then, the strength of the next filament was decreased or increased according to the response. The threshold of response was calculated from the sequence of filament strength used during the up-down procedure by using an Excel program (Microsoft Iberia SRL, Barcelona, Spain) that includes curve fitting of the data. Clear paw withdrawal, shaking, or licking of the paw was considered as a nociceptive-like response. Both ipsilateral and contralateral hind paws were tested. Animals were allowed to habituate for 1 h before testing in order to allow an appropriate behavioral immobility.
In a first set of experiments, we assessed the expression of inflammatory pain induced by the subplantar administration of CFA as previously used (Leánez et al., Eur J Pharmacol, 2009, 602:41-49). After the habituation period, baseline responses were established in the following sequence: von Frey filaments and plantar test. After baseline measurements, inflammatory pain was induced and animals were again tested in each paradigm at day 10 after CFA injection by using the same sequence as for baseline responses. The contralateral paws were used as controls (n = 6 animals per group).
In a second set of experiments, we evaluated the mechanical antiallodynic and thermal antihyperalgesic effects of the subplantar administration of different doses of a specific DOR (DPDPE) or CB2R (JWH-015) agonist and their respective vehicles in the contralateral and ipsilateral paw of CFA-injected animals (n = 6 animals per group). […]

CFA-injected mice [2] = test: plantar test (thermal hyperalgesia) in CFA-induced chronic inflammatory pain; conditions: for Thermal hyperalgesia Withdrawal latency: mean ± SEM, n=6; for reversal of the antihyperalgesic (antinociceptive) effects produced by 300 µg of JWH-015 / reversal of the antihyperalgesic effects produced by 150 µg of DPDPE: subplantar coadministration; for reversal of the antihyperalgesic effects produced by 150 µg of DPDPE: P < 0.001
Experimental: as §1, §2
Thermal hyperalgesia was assessed as previously reported by Hargreaves et al. (Pain, 1988, 32:77-88). Paw withdrawal latency in response to radiant heat was measured using the plantar test apparatus (Ugo Basile, Varese, Italy). Briefly, mice were placed in methacrylate cylinders (20 cm high x 9 cm diameter) positioned on a glass surface. The heat source was positioned under the plantar surface of the hind paw and activated with a light beam intensity, chosen in preliminary studies to give baseline latencies from 8 to 10 s in control mice. A cut-off time of 12 s was used to prevent tissue damage in absence of response. The mean paw withdrawal latencies from the ipsilateral and contralateral hind paws were determined from the average of three separate trials, taken at 5 min intervals to prevent thermal sensitization and behavioral disturbances. Animals were habituated to the environment for 1 h before the experiment to become quiet and to allow testing. […]
In another set of experiments, we evaluated the mechanical antiallodynic and thermal antihyperalgesic effects produced by the subplantar administration of 290 µg of SnPP alone or combined with the subplantar administration of a high dose of DPDPE (150 µg) or JWH-015 (300 µg) in the contralateral and ipsilateral paw of CFA-injected animals (n = 6 animals per group).
The reversibility of the antinociceptive effects produced by the subplantar administration of DPDPE (150 µg) or JWH-015 (300 µg), as doses that produce the maximal antiallodynic and antihyperalgesic effects after peripheral inflammation, by their subplantar coadministration with specific (naltrindole; 50 µg; AM630; 60 µg) and an unspecific peripheral opioid antagonist (naloxone methiodide, NX-ME; 50 µg) or a cannabinoid 1 receptor (CB1R) antagonist (AM251; 150 µg) (Hervera et al., J Pharmacol Exp Ther, 2010, 334: 887-896; Hervera et al., Mol Pain, 2011, 7:25) was also evaluated (n = 6 animals per group). The doses of all tested opioid and cannabinoid receptor antagonists were selected according to our previous data in animals with chronic pain (Hervera et al., Naunyn Schmiedebergs Arch Pharmacol, 2009, 380:345-352; Hervera et al., Psychopharmacology, 2013, 228:463-477; Negrete et al., PLoS One, 2011, 6:e26688).
CoPP and SnPP were dissolved in DMSO (1 % solution in saline). JWH-015, AM630, AM251 were dissolved in DMSO (50 % solution in saline). […]

CFA-injected mice [3] = test: as above
Experimental: as §1
Chronic inflammatory pain was induced by the subplantar injection of 30 µl of CFA (Sigma) into the right hind paw under brief anesthetic conditions with isoflurane according to previous works (Leánez et al., Eur J Pharmacol, 2009, 602:41-49; Hervera et al., Naunyn Schmiedebergs Arch Pharmacol, 2009, 380:345-352). All experiments were performed at 10 days after CFA injection. […] The development of mechanical allodynia and thermal hyperalgesia was evaluated by using the von Frey filaments and plantar tests, respectively. […]
Thermal hyperalgesia was assessed as previously reported by Hargreaves et al. (Pain, 1988, 32:77-88). Paw withdrawal latency in response to radiant heat was measured using the plantar test apparatus (Ugo Basile, Varese, Italy). […] The mean paw withdrawal latencies from the ipsilateral and contralateral hind paws were determined from the average of three separate trials, taken at 5 min intervals to prevent thermal sensitization and behavioral disturbances. […]
In a first set of experiments, we assessed the expression of inflammatory pain induced by the subplantar administration of CFA as previously used (Leánez et al., Eur J Pharmacol, 2009, 602:41-49). […]

[4] = Table 7, CB2R agonist, subplantar JWH-015 300 µg, AM630 60 µg, AM251 150 µg, vehicle+vehicle 1.4 ± 0.1
[5] = Table 7, CB2R agonist, ipsilateral paw, subplantar JWH-015 300 µg, AM630 60 µg, AM251 150 µg, vehicle+vehicle 3.8 ± 0.3
[6] = Table 7, DOR agonist, subplantar DPDPE 150 µg, naltrindole 50 µg, NX-ME 50 µg, vehicle+vehicle 1.3 ± 0.1
[7] = Table 7, DOR agonist, ipsilateral paw, subplantar DPDPE 150 µg, naltrindole 50 µg, NX-ME 50 µg, vehicle+vehicle 3.4 ± 0.5

Cc1c(C(=O)NN2CCCCC2)nn(-c2ccc(Cl)cc2Cl)c1-c1ccc(I)cc1 [AM251, N-(piperidin-1-yl)-5-(4-iodophenyl)-1-(2,4-dichlorophenyl)-4-methyl-1 H-pyrazole-3-carboxamide]
Mechanical allodynia von Frey filaments strength (CFA-injected mice [1]; [4]): 1.4 ± 0.1 g | reversal of the antiallodynic (antinociceptive) effects produced by 300 µg of JWH-015 (CFA-injected mice [1]; AM630 60 µg, AM251 150 µg): unable to revert | Thermal hyperalgesia Withdrawal latency (CFA-injected mice [2]; [5]): 3.6 ± 0.4 s | reversal of the antihyperalgesic (antinociceptive) effects produced by 300 µg of JWH-015 (CFA-injected mice [2]; AM630 60 µg, AM251 150 µg): unable to revert

COc1ccc(C(=O)c2c(C)n(CCN3CCOCC3)c3cc(I)ccc23)cc1 [AM630]
Mechanical allodynia von Frey filaments strength (CFA-injected mice [1]; [4]): 1.3 ± 0.1 g | reversal of the antiallodynic (antinociceptive) effects produced by 300 µg of JWH-015 (CFA-injected mice [1]; AM630 60 µg, AM251 150 µg): completely reversed | Thermal hyperalgesia Withdrawal latency (CFA-injected mice [2]; [5]): 3.7 ± 0.2 s | reversal of the antihyperalgesic (antinociceptive) effects produced by 300 µg of JWH-015 (CFA-injected mice [2]; AM630 60 µg, AM251 150 µg): completely reversed

CCCn1c(C)c(C(=O)c2cccc3ccccc23)c2ccccc21 [JWH-015, (2-Methyl-1-propyl-1H-indol-3-yl)-1-naphthalenylmethanone]
Mechanical allodynia, Experimental results (%) (maximal possible effect) (CFA-injected mice [1]; Table 6, JWH-015 30 µg subplantar, vehicle 4.1): 7.5% | Mechanical allodynia von Frey filaments strength (CFA-injected mice [1]; [4]): 2.5 ± 0.2 g | Thermal hyperalgesia, Experimental results (%) (maximal possible effect) (CFA-injected mice [2]; Table 6, ipsilateral paw, CoPP 10 mg/kg intraperitoneal, JWH-015 30 µg subplantar, vehicle 4.9): 7.4% | Thermal hyperalgesia Withdrawal latency (CFA-injected mice [2]; [5]): 9.2 ± 0.2 s

C=CC[N+]1(C)CC[C@]23c4c5ccc(O)c4O[C@H]2C(=O)CC[C@@]3(O)[C@H]1C5 (some centres unmarked) [NX-ME, naloxone methiodide]
Mechanical allodynia von Frey filaments strength (CFA-injected mice [1]; [6]): 1.2 ± 0.1 g | reversal of the antiallodynic effects produced by 150 µg of DPDPE (CFA-injected mice [1]; naltrindole 50 µg, NX-ME 50 µg): completely reversed | Thermal hyperalgesia Withdrawal latency (CFA-injected mice [2]; [7]): 3.6 ± 0.5 s | reversal of the antihyperalgesic effects produced by 150 µg of DPDPE (CFA-injected mice [2]; naltrindole 50 µg, NX-ME 50 µg): completely reversed

Oc1ccc2c3c1O[C@H]1c4[nH]c5ccccc5c4C[C@@]4(O)[C@@H](C2)N(CC2CC2)CC[C@]314 [Naltrindole, naltrindole]
Mechanical allodynia von Frey filaments strength (CFA-injected mice [1]; [6]): 1.3 ± 0.1 g | reversal of the antiallodynic effects produced by 150 µg of DPDPE (CFA-injected mice [1]; naltrindole 50 µg, NX-ME 50 µg): completely reversed | Thermal hyperalgesia Withdrawal latency (CFA-injected mice [2]; [7]): 3.4 ± 0.6 s | reversal of the antihyperalgesic effects produced by 150 µg of DPDPE (CFA-injected mice [2]; naltrindole 50 µg, NX-ME 50 µg): completely reversed

C=Cc1c(C)c2cc3[nH]c(cc4nc(cc5nc(cc1[nH]2)C(C)=C5CCC(=O)[O-])C(CCC(=O)[O-])=C4C)c(C)c3C=C.[Cl-].[Cl-].[Sn+4] [SnPP, tin (IV) protoporphyrin IX dichloride]
effect of SnPP coadministration on the local antiallodynic effects of DPDPE (CFA-injected mice [1]; SnPP 290 µg + DPDPE 150 µg subplantar, P < 0.001 (Fig. 5A)): significantly decreased | effect of SnPP coadministration on the local antiallodynic effects of JWH-015 (CFA-injected mice [1]; SnPP 290 µg + JWH-015 300 µg subplantar, P < 0.001 (Fig. 5A)): significantly decreased | mechanical allodynia induced by peripheral inflammation (CFA-injected mice [1]; SnPP alone 290 µg subplantar (Fig. 5A)): did not alter | effect of SnPP coadministration on the local antihyperalgesic effects of DPDPE (CFA-injected mice [2]; SnPP 290 µg + DPDPE 150 µg subplantar, P < 0.001 (Fig. 5B)): significantly decreased | effect of SnPP coadministration on the local antihyperalgesic effects of JWH-015 (CFA-injected mice [2]; SnPP 290 µg + JWH-015 300 µg subplantar, P < 0.001 (Fig. 5B)): significantly decreased | thermal hyperalgesia induced by peripheral inflammation (CFA-injected mice [2]; SnPP alone 290 µg subplantar (Fig. 5B)): did not alter

[2-D-penicillamine,5-D-penicillamine]-enkephalin [DPDPE]
Mechanical allodynia, Experimental results (%) (maximal possible effect) (CFA-injected mice [1]; Table 5, DPDPE 50 µg subplantar, vehicle 5.8): 11.8% | Mechanical allodynia von Frey filaments strength (CFA-injected mice [1]; [6]): 2.4 ± 0.1 g | mechanical allodynia induced by peripheral inflammation (CFA-injected mice [1]; subplantar administration, DPDPE 50-150 µg, JWH-015 30-300 µg (Fig. 1A, 2A)): dose-dependently inhibited | Thermal hyperalgesia, Experimental results (%) (maximal possible effect) (CFA-injected mice [3]; Table 5, ipsilateral paw, CoPP 10 mg/kg intraperitoneal, DPDPE 50 µg subplantar, vehicle 4.0): 16.0% | Thermal hyperalgesia Withdrawal latency (CFA-injected mice [3]; Table 7, DOR agonist, ipsilateral paw, subplantar DPDPE 150 µg, naltrindole 50 µg, NX-ME 50 µg, vehicle+vehicle 3.4 ± 0.5, mean ± SEM, n=6): 9.2 ± 0.7 s | thermal hyperalgesia induced by peripheral inflammation (CFA-injected mice [3]; subplantar administration, DPDPE 50-150 µg, JWH-015 30-300 µg (Fig. 1B, 2B)): dose-dependently inhibited
